Measurements reported in PMC8034185, “The rumen eukaryotome is a source of novel antimicrobial peptides with therapeutic potential” (BMC Microbiology, 2021).
In brackets after ≈: the same amount, converted by molar mass. One block for each molecule: values may come before it.

Key:
A. baumannii DSMZ 30007 = experiment: microbe, parasite or virus in culture; assay type: cell-based, Acinetobacter baumannii; details: Acinetobacter baumannii, DSMZ30007; modified broth microdilution, cation-adjusted Mueller Hinton broth, inoculum 5 × 10^5 CFU/mL, 18 h, quadruplicate; highest concentration tested 512 μg/mL; read-out: Minimum Inhibitory Concentration, A. baumannii DSMZ 30007
Procedure: (§1) MICs against a range of clinically important Gram-positive and Gram-negative bacteria strains including methicillin-sensitive Staphylococcus aureus (MSSA) RN4220 epidemic methicillin-resistant S. aureus-15 (EMRSA-15), methicillin-resistant S. aureus USA300 (MRSA USA300), Bacillus cereus, Enterococcus faecalis JH2–2, Escherichia coli K12, Salmonella enterica serovar Typhimurium SL1344, P. aeruginosa PAO1, and hospital isolates of Acinetobacter baummannii were determined in quadruplicate by a modified microdilution broth method [64] with a final bacterial inoculum concentration of 5 × 10^5 CFU/mL utilised as the test organisms. Cation-adjusted Mueller Hinton (MH) broth was innoclated overnight with a single colony of the tested microorganisms, subsequently grown for 16–24 h with shaking at 225 rpm, and further diluted in the same broth to a final concentration of 5 × 10^5 CFU/mL. The bacterial suspension was added to sterile U-bottomed 96-well plates, and the peptides and control antibiotics to be tested were dissolved in sterile distilled water and serially diluted in the wells. The MICs were recorded as the lowest peptide concentration that inhibited growth after incubation for 18 h [65].

P. aeruginosa H174 = experiment: microbe, parasite or virus in culture; assay type: cell-based, Pseudomonas aeruginosa; details: Pseudomonas aeruginosa, H174; modified broth microdilution, cation-adjusted Mueller Hinton broth, inoculum 5 × 10^5 CFU/mL, 18 h, quadruplicate; highest concentration tested 512 μg/mL; read-out: Minimum Inhibitory Concentration, P. aeruginosa H174
Procedure: as §1

A. baumannii S27379 Sen = experiment: microbe, parasite or virus in culture; assay type: cell-based, Acinetobacter baumannii; details: Acinetobacter baumannii, S27379SEN; sensitive hospital isolate; modified broth microdilution, cation-adjusted Mueller Hinton broth, inoculum 5 × 10^5 CFU/mL, 18 h, quadruplicate; highest concentration tested 512 μg/mL; read-out: Minimum Inhibitory Concentration, A. baumannii S27379 Sen
Procedure: as §1

Sal. Tyhimurium (SL1344) = experiment: microbe, parasite or virus in culture; assay type: cell-based, Salmonella enterica serovar Typhimurium; details: Salmonella enterica; modified broth microdilution, cation-adjusted Mueller Hinton broth, inoculum 5 × 10^5 CFU/mL, 18 h, quadruplicate; highest concentration tested 512 μg/mL; read-out: Minimum Inhibitory Concentration, Sal. Tyhimurium
Procedure: as §1

A. baumannii IMI/MER-R = experiment: microbe, parasite or virus in culture; assay type: cell-based, Acinetobacter baumannii; details: Acinetobacter baumannii; imipenem/meropenem resistant; modified broth microdilution, cation-adjusted Mueller Hinton broth, inoculum 5 × 10^5 CFU/mL, 18 h, quadruplicate; highest concentration tested 512 μg/mL; read-out: Minimum Inhibitory Concentration, A. baumannii IMI/MER-R
Procedure: as §1

P. aeruginosa PAO1 = experiment: microbe, parasite or virus in culture; assay type: cell-based, Pseudomonas aeruginosa; details: Pseudomonas aeruginosa, PAO1; modified broth microdilution, cation-adjusted Mueller Hinton broth, inoculum 5 × 10^5 CFU/mL, 18 h, quadruplicate; highest concentration tested 512 μg/mL; read-out: Minimum Inhibitory Concentration, P. aeruginosa PAO1
Procedure: as §1

E. coli K12 = experiment: microbe, parasite or virus in culture; assay type: cell-based, Escherichia coli; details: Escherichia coli, K12; modified broth microdilution, cation-adjusted Mueller Hinton broth, inoculum 5 × 10^5 CFU/mL, 18 h, quadruplicate; highest concentration tested 512 μg/mL; read-out: Minimum Inhibitory Concentration, E. coli K12
Procedure: as §1

[1] = tested on: A. baumannii S15785 OXA-23/0XA-50; experiment: microbe, parasite or virus in culture; assay type: cell-based, Acinetobacter baumannii; details: Acinetobacter baumannii; modified broth microdilution, cation-adjusted Mueller Hinton broth, inoculum 5 × 10^5 CFU/mL, 18 h, quadruplicate; highest concentration tested 512 μg/mL; read-out: Minimum Inhibitory Concentration, A. baumannii S15785 OXA-23/0XA-50
Procedure: as §1

EMRSA-15 cells = experiment: Time-kill assay; assay type: cell-based, Staphylococcus aureus; details: for Time dependent kill, Mean Log CFU/ml / Time dependent kill, CFU/ml / Time dependent kill, Log CFU/ml: 3x MIC (24 ug/ml); for Time dependent kill, Mean Log CFU/ml: mean of 3 independent replicates
Procedure: Time-dependent kill assays were adapted from standard procedures and were all performed as previously using exponential-phase cultures of EMRA-15 MRSA and USA300 grown in MHB (1 × 10^6 CFU/mL). […] Experiments were performed in triplicates, and CFU/mL was calculated at different time points after overnight incubation of inoculated agar plates (MHA) at 37 °C. Kill curves were plotted with CFU/mL against time (h).

B. cereus = experiment: microbe, parasite or virus in culture; assay type: cell-based, Bacillus cereus; details: Bacillus cereus, 18 h, read-out: Minimum Inhibitory Concentration, B. cereus
Procedure: as §1

S. aureus ATCC 33591 = experiment: microbe, parasite or virus in culture; assay type: cell-based, Staphylococcus aureus; details: Staphylococcus aureus, ATCC33591, 18 h, read-out: Minimum Inhibitory Concentration, S. aureus ATCC 33591
Procedure: as §1

S. aureus MSSA (RN4220) = experiment: microbe, parasite or virus in culture; assay type: cell-based, Staphylococcus aureus; details: Staphylococcus aureus, MSSA, 18 h, read-out: Minimum Inhibitory Concentration, S. aureus MSSA
Procedure: as §1

S. aureus EMRSA-15 = experiment: microbe, parasite or virus in culture; assay type: cell-based, Staphylococcus aureus; details: Staphylococcus aureus, EMRSA15, 18 h, read-out: Minimum Inhibitory Concentration, S. aureus EMRSA-15
Procedure: as §1

S. aureus USA300 = experiment: microbe, parasite or virus in culture; assay type: cell-based, Staphylococcus aureus; details: Staphylococcus aureus, USA300, 18 h, read-out: Minimum Inhibitory Concentration, S. aureus USA300
Procedure: as §1

Ent. faecalis (JH2–2) = experiment: microbe, parasite or virus in culture; assay type: cell-based, Enterococcus faecalis; details: Enterococcus faecalis, 18 h, read-out: Minimum Inhibitory Concentration, Ent. faecalis
Procedure: as §1

MIC (A. baumannii DSMZ 30007): 0.25 µg/mL (≈ 0.692 µM)
MIC (P. aeruginosa H174): 0.5 µg/mL (≈ 1.38 µM)
MIC (A. baumannii S27379 Sen): 0.12 µg/mL (≈ 0.332 µM)
MIC (Sal. Tyhimurium (SL1344)): 0.12 µg/mL (≈ 0.332 µM)
MIC (A. baumannii IMI/MER-R): 256 µg/mL (≈ 708 µM)
MIC (P. aeruginosa PAO1): 0.06 µg/mL (≈ 0.166 µM)
MIC (E. coli K12): 0.03 µg/mL (≈ 0.083 µM)
MIC [1]: > 512 µg/mL
SMILES: C[C@H]1COc2c(N3CCN(C)CC3)c(F)cc3c(=O)c(C(=O)O)cn1c23 [Levofloxacin]

SMILES: CN[C@H](CC(C)C)C(=O)N[C@H]1C(=O)N[C@@H](CC(N)=O)C(=O)N[C@H]2C(=O)N[C@H]3C(=O)N[C@H](C(=O)N[C@H](C(=O)O)c4cc(O)cc(O)c4-c4cc3ccc4O)[C@H](O)c3ccc(c(Cl)c3)Oc3cc2cc(c3O[C@@H]2O[C@H](CO)[C@@H](O)[C@H](O)[C@H]2O[C@H]2C[C@](C)(N)[C@H](O)[C@H](C)O2)Oc2ccc(cc2Cl)[C@H]1O [Vancomycin]
Time dependent kill, Mean Log CFU/ml (EMRSA-15 cells; 0 min): 6.839 Log CFU/ml
Time dependent kill, Mean Log CFU/ml (EMRSA-15 cells; 10 min): 6.579 Log CFU/ml
Time dependent kill, Mean Log CFU/ml (EMRSA-15 cells; 30 min): 6.503 Log CFU/ml
Time dependent kill, Mean Log CFU/ml (EMRSA-15 cells; 60 min): 6.404 Log CFU/ml
Time dependent kill, Mean Log CFU/ml (EMRSA-15 cells; 120 min): 5.884 Log CFU/ml
Time dependent kill, Mean Log CFU/ml (EMRSA-15 cells; 240 min): 5.168 Log CFU/ml
Time dependent kill, Mean Log CFU/ml (EMRSA-15 cells; 360 min): 4.661 Log CFU/ml
Time dependent kill, Mean Log CFU/ml (EMRSA-15 cells; 1440 min): 0 Log CFU/ml
Time dependent kill, CFU/ml (EMRSA-15 cells; T0 min, Exp1): 7200000 CFU/ml
Time dependent kill, CFU/ml (EMRSA-15 cells; T0 min, Exp2): 7600000 CFU/ml
Time dependent kill, CFU/ml (EMRSA-15 cells; T0 min, Exp3): 6000000 CFU/ml
Time dependent kill, Log CFU/ml (EMRSA-15 cells; T0 min, Exp3): 6.778 Log CFU/ml
Time dependent kill, CFU/ml (EMRSA-15 cells; T10 min, Exp1): 3800000 CFU/ml
Time dependent kill, Log CFU/ml (EMRSA-15 cells; T10 min, Exp1): 6.58 Log CFU/ml
Time dependent kill, CFU/ml (EMRSA-15 cells; T10 min, Exp2): 3600000 CFU/ml
Time dependent kill, Log CFU/ml (EMRSA-15 cells; T10 min, Exp2): 6.5563 Log CFU/ml
Time dependent kill, CFU/ml (EMRSA-15 cells; T10 min, Exp3): 4000000 CFU/ml
Time dependent kill, Log CFU/ml (EMRSA-15 cells; T10 min, Exp3): 6.602 Log CFU/ml
Time dependent kill, CFU/ml (EMRSA-15 cells; T30 min, Exp1): 2800000 CFU/ml
Time dependent kill, Log CFU/ml (EMRSA-15 cells; T30 min, Exp1): 6.447 Log CFU/ml
Time dependent kill, CFU/ml (EMRSA-15 cells; T30 min, Exp2): 4800000 CFU/ml
Time dependent kill, Log CFU/ml (EMRSA-15 cells; T30 min, Exp2): 6.681 Log CFU/ml
Time dependent kill, CFU/ml (EMRSA-15 cells; T30 min, Exp3): 2400000 CFU/ml
Time dependent kill, Log CFU/ml (EMRSA-15 cells; T30 min, Exp3): 6.38 Log CFU/ml
Time dependent kill, CFU/ml (EMRSA-15 cells; T60 min, Exp1): 2000000 CFU/ml
Time dependent kill, Log CFU/ml (EMRSA-15 cells; T60 min, Exp1): 6.301 Log CFU/ml
Time dependent kill, CFU/ml (EMRSA-15 cells; T60 min, Exp2): 3400000 CFU/ml
Time dependent kill, Log CFU/ml (EMRSA-15 cells; T60 min, Exp2): 6.531 Log CFU/ml
Time dependent kill, CFU/ml (EMRSA-15 cells; T60 min, Exp3): 2400000 CFU/ml
Time dependent kill, Log CFU/ml (EMRSA-15 cells; T60 min, Exp3): 6.38 Log CFU/ml
Time dependent kill, CFU/ml (EMRSA-15 cells; T120 min, Exp1): 800000 CFU/ml
Time dependent kill, Log CFU/ml (EMRSA-15 cells; T120 min, Exp1): 5.903 Log CFU/ml
Time dependent kill, CFU/ml (EMRSA-15 cells; T120 min, Exp2): 700000 CFU/ml
Time dependent kill, Log CFU/ml (EMRSA-15 cells; T120 min, Exp2): 5.8451 Log CFU/ml
Time dependent kill, CFU/ml (EMRSA-15 cells; T120 min, Exp3): 800000 CFU/ml
Time dependent kill, Log CFU/ml (EMRSA-15 cells; T120 min, Exp3): 5.903 Log CFU/ml
Time dependent kill, CFU/ml (EMRSA-15 cells; T240 min, Exp1): 80000 CFU/ml
Time dependent kill, Log CFU/ml (EMRSA-15 cells; T240 min, Exp1): 4.9031 Log CFU/ml
Time dependent kill, CFU/ml (EMRSA-15 cells; T240 min, Exp2): 100000 CFU/ml
Time dependent kill, Log CFU/ml (EMRSA-15 cells; T240 min, Exp2): 5 Log CFU/ml
Time dependent kill, CFU/ml (EMRSA-15 cells; T240 min, Exp3): 400000 CFU/ml
Time dependent kill, Log CFU/ml (EMRSA-15 cells; T240 min, Exp3): 5.602 Log CFU/ml
Time dependent kill, CFU/ml (EMRSA-15 cells; T360 min, Exp1): 60000 CFU/ml
Time dependent kill, Log CFU/ml (EMRSA-15 cells; T360 min, Exp1): 4.778 Log CFU/ml
Time dependent kill, CFU/ml (EMRSA-15 cells; T360 min, Exp2): 40000 CFU/ml
Time dependent kill, Log CFU/ml (EMRSA-15 cells; T360 min, Exp2): 4.602 Log CFU/ml
Time dependent kill, CFU/ml (EMRSA-15 cells; T360 min, Exp3): 40000 CFU/ml
Time dependent kill, Log CFU/ml (EMRSA-15 cells; T360 min, Exp3): 4.602 Log CFU/ml
Time dependent kill, CFU/ml (EMRSA-15 cells; T1440 min, Exp1): 0 CFU/ml
Time dependent kill, Log CFU/ml (EMRSA-15 cells; T1440 min, Exp1): 0 Log CFU/ml
Time dependent kill, CFU/ml (EMRSA-15 cells; T1440 min, Exp2): 0 CFU/ml
Time dependent kill, Log CFU/ml (EMRSA-15 cells; T1440 min, Exp2): 0 Log CFU/ml
Time dependent kill, CFU/ml (EMRSA-15 cells; T1440 min, Exp3): 0 CFU/ml
Time dependent kill, Log CFU/ml (EMRSA-15 cells; T1440 min, Exp3): 0 Log CFU/ml
reduction in viable cells, time-kill (EMRSA-15 cells; EMRSA-15, 3× MIC, after 6 h): ≥ 10^3 CFU/mL
MIC (B. cereus): 2 µg/mL (≈ 1.38 µM)
MIC (S. aureus ATCC 33591): 2 µg/mL (≈ 1.38 µM)
MIC (S. aureus MSSA (RN4220)): 2 µg/mL (≈ 1.38 µM)
MIC (S. aureus EMRSA-15): 2 µg/mL (≈ 1.38 µM)
MIC (S. aureus USA300): 2 µg/mL (≈ 1.38 µM)
MIC (Ent. faecalis (JH2–2)): 2 µg/mL (≈ 1.38 µM)
